Source: patent US9090593B2, “Bicyclic compounds as Pim inhibitors” (AMGEN INC., priority 2010, dated 2015)
Like-named read-outs stand apart in the source and are kept apart here.

What was measured:
[1] = biological target: T1, Pim-1 stably transfected into the U2OS human osteogenic sarcoma line (Homo sapiens, UniProt P11309); test: Pim cell assay, phospho-BAD normalized against total BAD, U2OS stably transfected with Pim-1; type: cell-based; conditions: read-out: Pim1_Cell_IC50
T1 construct: expressed in transfected cells; host or cells: U2OS human osteogenic sarcoma line
In short: (§1)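 Read-out is phospho-BAD relative to total BAD, by MSD electrochemiluminescence on lysates, expressed as % phosphoprotein = (2×phospho)/(phospho+total)×100. Engineered U2OS lines carrying stably transfected Pim-1 or Pim-2 received 10-point compound dilutions at 0.3% final DMSO after overnight culture at 37 °C; DMSO-only wells served as high control.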

[2] = biological target: T2, full length recombinant Pim-3 protein (Homo sapiens, UniProt Q86V86); test: Pim-3 enzyme assay (HTRF, phosphorylation of biotinylated-BAD (S112) peptide); type: biochemical; conditions: read-out: Pim3 IC50
T2 construct: by full length recombinant Pim-1, Pim-2, or Pim-3 protein; purchased Millipore (UK)
In short: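 HTRF read-out, streptavidin-APC plus Eu-labelled anti-phospho-BAD (S112) antibody, measures BAD peptide phosphorylation by full-length recombinant Pim-3. Buffer: 60 mM Hepes pH 7.0, 2 mM DTT, 0.05% BSA; EDTA (3 mM) stop. Percent of control per well, IC50 by 4-parameter logistic fit.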

[3] = biological target: T3, Pim-2 stably transfected into the U2OS human osteogenic sarcoma line (Homo sapiens, UniProt Q9P1W9); test: Pim cell assay, phospho-BAD normalized against total BAD, U2OS stably transfected with Pim-2; type: cell-based; conditions: read-out: Pim2_Cell_IC50; also: high dose 31.6 µM
T3 construct: expressed in transfected cells; host or cells: U2OS human osteogenic sarcoma line
In short: as §1

[4] = biological target: T4, full length recombinant Pim-1 protein (Homo sapiens, UniProt P11309); test: Pim-1 enzyme assay (HTRF, phosphorylation of biotinylated-BAD (S112) peptide); type: biochemical; conditions: enzyme assay, Pim-1; read-out: Pim_1_IC50
T4 construct: by full length recombinant Pim-1, Pim-2, or Pim-3 protein; hexahistidine tag followed by a thrombin cleavage site (N); made in house; host or cells: Sf9 (baculovirus) or E. coli (pET28)
In short: (§2)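 HTRF readout (europium anti-pBAD S112 antibody, streptavidin-APC) of biotin-BAD peptide phosphorylation by recombinant full-length Pim-1 or Pim-2, buffer 60 mM Hepes pH 7.0, 2 mM DTT, 0.05% BSA. Enzymes were His6-tagged, from baculovirus/Sf9 or E. coli.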

[5] = biological target: T5, full length recombinant Pim-2 protein (Homo sapiens, UniProt Q9P1W9); test: Pim-2 enzyme assay (HTRF, phosphorylation of biotinylated-BAD (S112) peptide); type: biochemical; conditions: enzyme assay, Pim-2; read-out: Pim2_IC50
T5 construct: by full length recombinant Pim-1, Pim-2, or Pim-3 protein; hexahistidine tag followed by a thrombin cleavage site (N); made in house; host or cells: Sf9 (baculovirus) or E. coli (pET28)
In short: as §2

[6] = U2OS cells stably transfected with Pim-1, phospho-BAD, high dose […]
[7] = U2OS cells stably transfected with Pim-2, phospho-BAD, high dose […]

T5 sequence (Q9P1W9 whole entry): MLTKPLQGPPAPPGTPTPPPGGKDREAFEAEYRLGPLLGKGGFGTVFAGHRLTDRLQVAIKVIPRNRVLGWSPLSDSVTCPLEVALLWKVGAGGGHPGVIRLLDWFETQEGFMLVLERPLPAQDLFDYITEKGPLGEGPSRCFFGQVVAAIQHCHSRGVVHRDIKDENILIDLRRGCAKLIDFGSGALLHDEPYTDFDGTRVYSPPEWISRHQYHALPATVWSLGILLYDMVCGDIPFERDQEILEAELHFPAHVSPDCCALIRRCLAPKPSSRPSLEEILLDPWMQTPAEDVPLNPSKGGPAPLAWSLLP
T3 sequence (Q9P1W9 whole entry): as above
T1 sequence (P11309 whole entry): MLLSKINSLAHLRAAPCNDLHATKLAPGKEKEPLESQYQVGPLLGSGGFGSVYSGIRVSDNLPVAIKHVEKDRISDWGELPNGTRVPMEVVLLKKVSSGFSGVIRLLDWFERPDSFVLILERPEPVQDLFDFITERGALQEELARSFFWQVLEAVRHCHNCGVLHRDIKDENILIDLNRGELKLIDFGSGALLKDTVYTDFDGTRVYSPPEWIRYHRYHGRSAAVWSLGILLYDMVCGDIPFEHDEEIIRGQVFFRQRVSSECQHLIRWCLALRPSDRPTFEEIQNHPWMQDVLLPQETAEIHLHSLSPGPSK
T4 sequence (P11309 whole entry): as above

IC50 [1, 6] [nM]	IC50 [2] [nM]	IC50 [3, 7] [nM]	IC50 [4] [nM]	IC50 [5] [nM]	IC50 [1] [nM]	IC50 [3] [nM]	Compound
395	3	7170	2	29	–	–	Nc1cccc(-c2ccc3[nH]nc(-c4cncc(N5CCC(N)CC5)n4)c3c2)c1 [Example 81, 1-(6-(5-(3-aminophenyl)-1H-indazol-3-yl)-2-pyrazinyl)-4-piperidinamine]
1420	4	22100	10	34	–	–	NC1CCN(c2cncc(-c3n[nH]c4ccc(-c5ccccc5Cl)cc34)n2)CC1 [Example 83, 1-(6-(5-(2-chlorophenyl)-1H-indazol-3-yl)-2-pyrazinyl)-4-piperidinamine]
253	4	> 31600	9	45	–	–	NC1CCN(c2cncc(-c3n[nH]c4ccc(-c5cc([N+](=O)[O-])ccc5F)cc34)n2)CC1 [Example 84, 1-(6-(5-(2-fluoro-5-nitrophenyl)-1H-indazol-3-yl)-2-pyrazinyl)-4-piperidinamine]
176	1	7020	5	36	–	–	NC1CCN(c2cncc(-c3n[nH]c4ccc(-c5cncc(F)c5)cc34)n2)CC1 [Example 85, 1-(6-(5-(5-fluoro-3-pyridinyl)-1H-indazol-3-yl)-2-pyrazinyl)-4-piperidinamine]
328	2	20300	6	60	–	–	COc1cc(OC)cc(-c2ccc3[nH]nc(-c4cncc(N5CCC(N)CC5)n4)c3c2)c1 [Example 86, 1-(6-(5-(3,5-dimethoxyphenyl)-1H-indazol-3-yl)-2-pyrazinyl)-4-piperidinamine]
569	5	> 31600	12	43	–	–	NC1CCN(c2cncc(-c3n[nH]c4ccc(-c5cncnc5)cc34)n2)CC1 [Example 87, 1-(6-(5-(5-pyrimidinyl)-1H-indazol-3-yl)-2-pyrazinyl)-4-piperidinamine]
1190	57	> 31600	48	685	–	–	NC1CCN(c2cncc(-c3n[nH]c4ccc(-c5ccccn5)cc34)n2)CC1 [Example 88, 1-(6-(5-(2-pyridinyl)-1H-indazol-3-yl)-2-pyrazinyl)-4-piperidinamine]
747	40	> 31600	23	196	–	–	NC1CCN(c2cncc(-c3n[nH]c4ccc(N5CCCCC5)cc34)n2)CC1 [Example 90, 1-(6-(5-(1-piperidinyl)-1H-indazol-3-yl)-2-pyrazinyl)-4-piperidinamine]
–	5	–	9	57	2230	> 31600	CN1CCN(c2ccc3[nH]nc(-c4cncc(N5CCC(N)CC5)n4)c3c2)C1=O [Example 92, 1-(3-(6-(4-amino-1-piperidinyl)-2-pyrazinyl)-1H-indazol-5-yl)-3-methyl-2-imidazolidinone]
487	82	> 31600	13	> 1000	–	–	CC(C)(C)C(=O)Nc1cccc(-c2ccc3[nH]nc(-c4cncc(N5CCC(N)CC5)n4)c3c2)n1 [Example 93, N-(6-(3-(6-(4-amino-1-piperidinyl)-2-pyrazinyl)-1H-indazol-5-yl)-2-pyridinyl)-2,2-dimethylpropanamide]
384	3	> 31600	5	82	–	–	NC1CCN(c2cncc(-c3n[nH]c4ccc(-c5ccc6cc[nH]c6n5)cc34)n2)CC1 [Example 95, 1-(6-(5-(1H-pyrrolo[2,3-b]pyridin-6-yl)-1H-indazol-3-yl)-2-pyrazinyl)-4-piperidinamine]
3030	1	> 31600	3	27	–	–	Nc1ncc(-c2ccc3[nH]nc(-c4cncc(N5CCC(N)CC5)n4)c3c2)cn1 [Example 97, 5-(3-(6-(4-amino-1-piperidinyl)-2-pyrazinyl)-1H-indazol-5-yl)-2-pyrimidinamine]

The next lines start with the compound.

Compound	IC50 [1, 6] [nM]	IC50 [2] [nM]	IC50 [3, 7] [nM]	IC50 [4] [nM]	IC50 [5] [nM]	IC50 [1] [nM]	IC50 [3] [nM]
CCOc1cccc(-c2ccc3[nH]nc(-c4cncc(N5CCC(N)CC5)n4)c3c2)n1 [Example 65, 1-(6-(5-(6-ethoxy-2-pyridinyl)-1H-indazol-3-yl)-2-pyrazinyl)-4-piperidinamine]	3530	18	> 31600	13	274	–	–
NC1CCN(c2cncc(-c3n[nH]c4ccc(-c5cccc(F)n5)cc34)n2)CC1 [Example 66, 1-(6-(5-(6-fluoro-2-pyridinyl)-1H-indazol-3-yl)-2-pyrazinyl)-4-piperidinamine]	401	2	17300	4	33	–	–
NC1CCN(c2cncc(-c3n[nH]c4ccc(-c5ccccc5F)cc34)n2)CC1 [Example 67, 1-(6-(5-(2-fluorophenyl)-1H-indazol-3-yl)-2-pyrazinyl)-4-piperidinamine]	380	1	15000	2	10	–	–
NC1CCN(c2cncc(-c3n[nH]c4ccc(-c5cccnc5O)cc34)n2)CC1 [Example 68, 3-(3-(6-(4-amino-1-piperidinyl)-2-pyrazinyl)-1H-indazol-5-yl)-2-pyridinol]	> 31600	11	> 31600	20	88	–	–
COc1cc(-c2ccc3[nH]nc(-c4cncc(N5CCC(N)CC5)n4)c3c2)c(F)cn1 [Example 70, 1-(6-(5-(5-fluoro-2-methoxy-4-pyridinyl)-1H-indazol-3-yl)-2-pyrazinyl)-4-piperidinamine]	255	4	> 31600	5	18	–	–
NC1CCN(c2cncc(-c3n[nH]c4ccc(-c5cccc(F)c5F)cc34)n2)CC1 [Example 71, 1-(6-(5-(2,3-difluorophenyl)-1H-indazol-3-yl)-2-pyrazinyl)-4-piperidinamine]	256	1	8820	3	11	–	–
NC1CCN(c2cncc(-c3n[nH]c4ccc(-c5ccccc5O)cc34)n2)CC1 [Example 72, 2-(3-(6-(4-amino-1-piperidinyl)-2-pyrazinyl)-1H-indazol-5-yl)phenol]	533	5	> 31600	3	82	–	–
NC1CCN(c2cncc(-c3n[nH]c4ccc(-c5cc(=O)[nH]cc5Cl)cc34)n2)CC1 [Example 74, 4-(3-(6-(4-amino-1-piperidinyl)-2-pyrazinyl)-1H-indazol-5-yl)-5-chloro-2(1H)-pyridinone]	> 31600	15	> 31600	14	54	–	–
NC1CCN(c2cncc(-c3n[nH]c4ccc(-c5ccccc5)cc34)n2)CC1 [Example 75, 1-(6-(5-phenyl-1H-indazol-3-yl)-2-pyrazinyl)-4-piperidinamine]	480	3	> 31600	7	49	–	–
CS(=O)(=O)c1cccc(-c2ccc3[nH]nc(-c4cncc(N5CCC(N)CC5)n4)c3c2)c1 [Example 76, 1-(6-(5-(3-(methylsulfonyl)phenyl)-1H-indazol-3-yl)-2-pyrazinyl)-4-piperidinamine]	2740	5	> 31600	16	187	–	–
COc1cccc(-c2ccc3[nH]nc(-c4cncc(N5CCC(N)CC5)n4)c3c2)c1 [Example 77, 1-(6-(5-(3-methoxyphenyl)-1H-indazol-3-yl)-2-pyrazinyl)-4-piperidinamine]	453	3	> 31600	6	70	–	–
NC1CCN(c2cncc(-c3n[nH]c4ccc(-c5cccc(O)c5)cc34)n2)CC1 [Example 78, 3-(3-(6-(4-amino-1-piperidinyl)-2-pyrazinyl)-1H-indazol-5-yl)phenol]	885	1	7970	2	27	–	–
NC1CCN(c2cncc(-c3n[nH]c4ccc(-c5ccn[nH]5)cc34)n2)CC1 [Example 80, 1-(6-(5-(1H-pyrazol-5-yl)-1H-indazol-3-yl)-2-pyrazinyl)-4-piperidinamine]	2380	1	> 31600	3	15	–	–
